A word on the Ki: it is a dissociation constant, usually derived from enzyme kinetics or from competition with a known ligand. As a reminder, the EC50 is the midpoint of the concentration-response curve.

Among the data in US8252793B2, “Bradykinin receptor agonists and uses thereof to treat ocular hypertension and glaucoma” (Alcon Research, Ltd., priority 2010, dated 2012) are Ki and EC50 values, retold here.

Experiment [1] concerns the target T1, recombinant human bradykinin B2 receptor (Homo sapiens, UniProt P30411).
T1 construct: expressed in transfected cells; host or cells: Chinese hamster ovary (CHO) cells, membrane homogenates
T1 sequence (P30411 1-391): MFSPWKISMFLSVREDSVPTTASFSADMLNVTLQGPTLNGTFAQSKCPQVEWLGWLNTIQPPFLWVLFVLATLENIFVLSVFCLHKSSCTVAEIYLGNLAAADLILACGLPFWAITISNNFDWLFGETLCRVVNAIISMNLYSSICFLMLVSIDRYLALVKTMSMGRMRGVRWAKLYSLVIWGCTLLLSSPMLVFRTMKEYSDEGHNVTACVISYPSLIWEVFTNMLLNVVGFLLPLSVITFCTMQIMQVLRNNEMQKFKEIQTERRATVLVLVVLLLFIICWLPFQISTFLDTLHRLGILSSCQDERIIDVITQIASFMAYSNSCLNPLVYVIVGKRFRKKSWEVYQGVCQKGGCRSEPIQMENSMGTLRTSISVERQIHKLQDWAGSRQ
The experiment in a line: [3H]-BK competition radioligand binding to human cloned B2 receptor (CHO cell membranes). The note with it: 0.2 nM [3H]-bradykinin, CHO membranes, 60 min 23° C.; mean ± SEM or single value; Ki from IC50 by Cheng-Prusoff; read-out: [3H]-BK Binding to Human Cloned B2 Receptor (Ki).

The target in experiment [2] is T2, BK receptors in human ciliary muscle cells (h-CM) (Homo sapiens, UniProt P30411).
T2 construct: h-CM cells expressing BK receptors were seeded; endogenous in cells; host or cells: human ciliary muscle (h-CM) cells
T2 sequence (P30411 1-391): T1 sequence (P30411 1-391)
The experiment in a line: Functional assay measuring [Ca2+]i mobilization (FLIPR) in h-CM cells. It is filed as cell-based. Particulars: class symbols (in μM), read-out: CaM (EC50). In short, it runs like this: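 Human ciliary muscle cells loaded 1 h at 23 °C with FLIPR calcium dye in HBSS, 20 mM HEPES, 2.5 mM probenecid, pH 7.4. EC50 by 4-parameter fit.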

Experiment [3] deals with primary human ciliary muscle cells (h-CM). The experiment in a line: Total prostaglandin (PG) release from primary h-CM cells (EIA). The note with it: Homo sapiens, 1 h, 1 hour at 37° C., class symbols (in μM). It is filed as cell-based. The protocol: BK agonist compounds of Formula 1 were evaluated for the ability to induce prostaglandin (PG) release from primary human ciliary muscle cells (h-CM). Briefly, h-CM cells were grown to confluence in FNC-coated 24-well culture plates and serum-starved (0.8% FBS) for 24 hours prior to the experiment. Cells were stimulated with a 9-pt concentration-response (0.1 nM-10 μM) of bradykinin or BK agonist for 1 hour at 37° C. with subsequent sample recovery and processing for total PG measurement. Total PG measurement was determined using a total Prostaglandin Screening EIA kit (cat#514012) purchased from Cayman Chemical (Ann Arbor, Mich.). The assay was conducted according to the package insert from the manufacturer.

Regarding `COc1nc2c(OCc3c(Cl)ccc(N(C)C(=O)CNC(=O)CCC4CN=C(N[N+](=O)[O-])NC4)c3Cl)cccc2n1Cc1ccccn1` (stereo not drawn) [Compound 76], the Ki in experiment [1] came out at 237 nM. The half-maximal effective concentration (EC50) is less than 0.1 µM in experiment [2] and greater than 1 µM in experiment [3].
The like results for `CNC(=O)c1ccc(CCC(=O)NCC(=O)N(C)c2ccc(Cl)c(COc3cccc4c3nc(OC)n4Cc3ccccn3)c2Cl)cn1` [Compound 64, 5-(3-((2-((2,4-dichloro-3-(((2-methoxy-1-(pyridin-2-ylmethyl)-1H-benzo[d]imidazol-4-yl)oxy)methyl)phenyl)(methyl)amino)-2-oxoethyl)amino)-3-oxopropyl)-N-methylpicolinamide] were, in that order, 40.3 nM, less than 0.1 µM and less than 0.1 µM.
As for `CNC(=O)c1ccc(CCC(=O)NCC(=O)N(C)c2ccc(Cl)c(COc3cccc4c(OCc5ccccn5)cc(C)nc34)c2Cl)cc1` [Compound 30], the inhibition constant Ki in experiment [1] is 3 nM. The EC50 in experiment [2] and in experiment [3] was 0.1 to 1 µM in each case.
Regarding `COc1nc2c(OCc3c(Cl)ccc(N(C)C(=O)CNC(=O)CCc4ccc(NC(=O)CN)nc4)c3Cl)cccc2n1Cc1ccccn1` [Compound 74, 3-(6-(2-aminoacetamido)pyridin-3-yl)-N-(2-((2,4-dichloro-3-(((2-methoxy-1-(pyridin-2-ylmethyl)-1H-benzo[d]imidazol-4-yl)oxy)methyl)phenyl)(methyl)amino)-2-oxoethyl)propanamide], in experiment [1], the Ki is 384 nM. Further, the EC50 in experiment [2] was less than 0.1 µM; in experiment [3] it was 0.1 to 1 µM.
The matching figures for `COc1nc2c(OCc3c(Cl)ccc(N(C)C(=O)CNC(=O)CNC4CCC(NC(C)=O)CC4)c3Cl)cccc2n1Cc1ccccn1` (stereo not drawn) [Compound 10, 2-(2-((4-acetamidocyclohexyl)amino)acetamido)-N-(2,4-dichloro-3-(((2-methoxy-1-(pyridin-2-ylmethyl)-1H-benzo[d]imidazol-4-yl)oxy)methyl)phenyl)-N-methylacetamide]: 76 ± 16 nM, less than 0.1 µM and greater than 1 µM.
The matching figures for `CC(=O)Nc1ccc(CCC(=O)NCC(=O)N(C)c2ccc(Cl)c(COc3cccc4c(OCc5ccccn5)cc(C)nc34)c2Cl)cc1` [Compound 28, 3-(4-acetamidophenyl)-N-(2-((2,4-dichloro-3-(((2-methyl-4-(pyridin-2-ylmethoxy)quinolin-8-yl)oxy)methyl)phenyl)(methyl)amino)-2-oxoethyl)propanamide]: 3 nM, 0.1 to 1 µM and less than 0.1 µM.
The matching figures for `CCc1nc2c(OCc3c(Cl)ccc(N(C)C(=O)CNC(=O)CCC4CN=C(NC(C)=O)NC4)c3Cl)cccc2n1Cc1ccccn1` (stereo not drawn) [Compound 61]: 451 nM, less than 0.1 µM and greater than 1 µM.
For the molecule `CNC(=O)N1CCC(N2CCC(C(=O)NCC(=O)N(C)c3ccc(Cl)c(COc4cccc5c4nc(OC)n5Cc4ccccn4)c3Cl)C2)C1` (stereo not drawn) [Compound 24, N3-(2-((2,4-dichloro-3-((2-methoxy-1-(pyridin-2-ylmethyl)-1H-benzo[d]imidazol-4-yloxy)methyl)phenyl)(methyl)amino)-2-oxoethyl)-N1′-methyl-1,3′-bipyrrolidine-1′,3-dicarboxamide], the Ki in experiment [1] was 171 ± 97 nM. Besides, the half-maximal effective concentration (EC50) in experiment [2] was less than 0.1 µM; in experiment [3] it was 0.1 to 1 µM.
The matching figures for `COCCNC(=O)c1ccc(CCC(=O)NCC(=O)N(C)c2ccc(Cl)c(COc3cccc4c3nc(OC)n4Cc3ccccn3)c2Cl)cc1` [Compound 1, 4-(3-((2-((2,4-dichloro-3-(((2-methoxy-1-(pyridin-2-ylmethyl)-1H-benzo[d]imidazol-4-yl)oxy)methyl)phenyl)(methyl)amino)-2-oxoethyl)amino)-3-oxopropyl)-N-(2-methoxyethyl)benzamide]: 54 nM, less than 0.1 µM and less than 0.1 µM.
The matching figures for `COC(=O)Nc1ccc(CCC(=O)NCC(=O)N(C)c2ccc(C)c(COc3cccc4c3nc(OC)n4Cc3ccccn3)c2C)cn1` [Compound 4, methyl (5-(3-((2-((3-(((2-methoxy-1-(pyridin-2-ylmethyl)-1H-benzo[d]imidazol-4-yl)oxy)methyl)-2,4-dimethylphenyl)(methyl)amino)-2-oxoethyl)amino)-3-oxopropyl)pyridin-2-yl)carbamate]: 158 nM, 0.1 to 1 µM and greater than 1 µM.
The like results for `CCc1nc2c(OCc3c(Cl)ccc(N(C)C(=O)CNC(=O)CCN4CCN(C(=O)NC)CC4)c3Cl)cccc2n1Cc1ccccn1` [Compound 19, 4-(3-((2-((2,4-dichloro-3-(((2-ethyl-1-(pyridin-2-ylmethyl)-1H-benzo[d]imidazol-4-yl)oxy)methyl)phenyl)(methyl)amino)-2-oxoethyl)amino)-3-oxopropyl)-N-methylpiperazine-1-carboxamide] were, in that order, 262 ± 11 nM, less than 0.1 µM and greater than 1 µM.
As for `COc1nc2c(OCc3c(Cl)ccc(N(C)C(=O)CNC(=O)C4CCN(C5CCNC5)C4)c3Cl)cccc2n1Cc1ccccn1` (stereo not drawn) [Compound 22, N-(2-((2,4-dichloro-3-((2-methoxy-1-(pyridin-2-ylmethyl)-1H-benzo[d]imidazol-4-yloxy)methyl)phenyl)(methyl)amino)-2-oxoethyl)-1,3′-bipyrrolidine-3-carboxamide], in experiment [1], the Ki amounted to 160 ± 47 nM. Further, the concentration giving a half-maximal response (EC50) is less than 0.1 µM in experiment [2] and greater than 1 µM in experiment [3].
For the molecule `CNC(=O)c1ccc(C(=O)NCC(=O)N(C)c2ccc(Cl)c(COc3cccc4c3nc(OC)n4Cc3ccccn3)c2Cl)cn1` [Compound 69], the inhibitory constant (Ki) in experiment [1] was 178 nM. Also, the half-maximal effective concentration (EC50) in experiment [2] and in experiment [3] was less than 0.1 µM throughout.
For the molecule `CNC(=O)N1CCN(CCC(=O)NCC(=O)N(C)c2ccc(Cl)c(COc3cccc4c3nc(OC)n4Cc3ccccn3)c2Cl)CC1` [Compound 7, 4-(3-((2-((2,4-dichloro-3-(((2-methoxy-1-(pyridin-2-ylmethyl)-1H-benzo[d]imidazol-4-yl)oxy)methyl)phenyl)(methyl)amino)-2-oxoethyl)amino)-3-oxopropyl)-N-methylpiperazine-1-carboxamide], the Ki in experiment [1] was determined as 118 ± 2 nM. The concentration giving a half-maximal response (EC50) in experiment [2] and in experiment [3] was less than 0.1 µM each time.
Turning to `CCOC(=O)NC1=NCC(CCC(=O)NCC(=O)N(C)c2ccc(Cl)c(COc3cccc4c3nc(OC)n4Cc3ccccn3)c2Cl)CN1` (stereo not drawn) [Compound 9, Ethyl (5-(3-((2-((2,4-dichloro-3-(((2-methoxy-1-(pyridin-2-ylmethyl)-1H-benzo[d]imidazol-4-yl)oxy)methyl)phenyl)(methyl)amino)-2-oxoethyl)amino)-3-oxopropyl)-1,4,5,6-tetrahydropyrimidin-2-yl)carbamate], the inhibition constant Ki in experiment [1] came to 667 ± 101 nM. Also, the 50% effective concentration (EC50) in experiment [2] is less than 0.1 µM; in experiment [3], 0.1 to 1 µM.
The like results for `COc1nc2c(OCc3c(Cl)ccc(N(C)C(=O)CNC(=O)[C@@H]4CCN(C(=O)OC(C)(C)C)C4)c3Cl)cccc2n1Cc1ccccn1` [Compound 62] were, in that order, 105 nM, less than 0.1 µM and 0.1 to 1 µM.
Take `CNC(=O)[C@H]1CC[C@H](CCC(=O)NCC(=O)N(C)c2ccc(Cl)c(COc3cccc4c3nc(OC)n4Cc3ccccn3)c2Cl)CN1` [Compound 38, (2R,5R)-5-(3-((2-((2,4-dichloro-3-(((2-methoxy-1-(pyridin-2-ylmethyl)-1H-benzo[d]imidazol-4-yl)oxy)methyl)phenyl)(methyl)amino)-2-oxoethyl)amino)-3-oxopropyl)-N-methylpiperidine-2-carboxamide]: the inhibitory constant (Ki) in experiment [1] amounted to 332 nM. Besides, the EC50 in experiment [2] and in experiment [3] was less than 0.1 µM throughout.
Turning to `CNC(=O)c1ncc(CCC(=O)NCC(=O)N(C)c2ccc(Cl)c(COc3cccc4c3nc(OC)n4Cc3ccccn3)c2Cl)cn1` [Compound 42, 5-(3-((2-((2,4-dichloro-3-(((2-methoxy-1-(pyridin-2-ylmethyl)-1H-benzo[d]imidazol-4-yl)oxy)methyl)phenyl)(methyl)amino)-2-oxoethyl)amino)-3-oxopropyl)-N-methylpyrimidine-2-carboxamide], the Ki in experiment [1] was 194 nM. Also, the figures for the EC50 in experiment [2] and in experiment [3] were less than 0.1 µM and 0.1 to 1 µM, respectively.
The matching figures for `CNC(=O)c1ccc(CCC(=O)NCC(=O)N(C)c2ccc(Cl)c(COc3cccc4c3nc(OC)n4Cc3ccccn3)c2Cl)cc1` [Compound 33, 4-(3-((2-((2,4-dichloro-3-(((2-methoxy-1-(pyridin-2-ylmethyl)-1H-benzo[d]imidazol-4-yl)oxy)methyl)phenyl)(methyl)amino)-2-oxoethyl)amino)-3-oxopropyl)-N-methylbenzamide]: 7 ± 1 nM, less than 0.1 µM and less than 0.1 µM.
